The target of experiment [1] is T1, HIV-1 RT double mutant K103N/Y181C (Human immunodeficiency virus type 1 group M subtype B, UniProt P03366, K702N/Y780C).
T1 construct: HIV-1 wild type reverse transcriptase as well as the clinically significant double mutant K103N/Y181C
As to the kind of experiment: biochemical. The procedure: (§1) Utilizing the Reverse Transcriptase (RT) Assay described below, compounds were tested for their ability to inhibit the RNA-dependent DNA polymerase activity of HIV-1 RT. Certain specific compounds described in the Examples and in Tables 1-4, were so tested. The results of this testing appear in Table 5 as ranges of IC50 (nM) and EC50 (nM).
(§2) Reverse Transcriptase (RT) Assays

Experiment [2] deals with T2, HIV-1 wild type reverse transcriptase (Human immunodeficiency virus type 1 group M subtype B, UniProt P03366).
T2 construct: HIV-1 wild type reverse transcriptase
As to the kind of experiment: biochemical. As to conditions: wild type RT; read-out: IC50 WT RT. The procedure: as §1, §2

The subject of a further experiment is HIV-1 wild type. Description: microbe, parasite or virus in culture. The experiment is classed as cell-based.
Experiment [3] has as its system HIV-1 double mutant K103N/Y181C. Description: microbe, parasite or virus in culture. The experiment is classed as cell-based.
Setting [4] is: RT double mutant K103N/Y181C, read-out: IC50 K103N/Y181C.
Where [5] appears, read: wild type, read-out: EC50 WT RT.
Setting [6] is: double mutant K103N/Y181C, read-out: EC50 K103N/Y181C.
The mark [7] stands for this setting: Human immunodeficiency virus 1, read-out: EC50 WT RT (nM).
[8] abbreviates: Human immunodeficiency virus 1, read-out: EC50 K103N/Y181C (nM).
[9] abbreviates: Human immunodeficiency virus 1, wild type, read-out: EC50 WT RT.

Like-named read-outs stand apart in the source and are kept apart here.

With `CCN1c2ncc(CCOc3ccc(-c4ccc(C(=O)O)cc4)cc3)cc2C(=O)N(C)c2cccnc21` [Entry 1001], the IC50 in experiment [1] (setting [4]) was 50 to 100 nM; in experiment [2], less than 50 nM. The EC50 was less than 10 nM in the experiment on HIV-1 wild type (setting [5]) and greater than 50 nM in experiment [3] (setting [6]).
The like results for `CCN1c2ncc(CCOc3ccc(-c4ccc(C(=O)O)cc4)cc3C)cc2C(=O)N(C)c2cccnc21` [Entry 1003] were, in that order, less than 50 nM, less than 50 nM, less than 10 nM and less than 10 nM.
Take `CCN1c2ncc(CCOc3ccc(-c4ccc(C(=O)O)cc4)cc3F)cc2C(=O)N(C)c2cccnc21` [Entry 1004]: the values for the IC50 in experiment [1] (setting [4]) and in experiment [2] were greater than 100 nM and less than 50 nM, respectively. The EC50 with HIV-1 wild type (setting [5]) is less than 10 nM; in experiment [3] (setting [6]) it was greater than 50 nM.
The like results for `CCN1c2ncc(CCOc3ccc(-c4ccc(C(=O)O)cc4)c(C)c3)cc2C(=O)N(C)c2cccnc21` [Entry 1005] were, in that order, greater than 100 nM, less than 50 nM, 10 to 50 nM and greater than 50 nM.
For `CCN1c2ncc(CCOc3ccc(-c4ccc(C(=O)O)cc4)c(Cl)c3)cc2C(=O)N(C)c2cccnc21` [Entry 1006], in that order: 50 to 100 nM, less than 50 nM, 10 to 50 nM and greater than 50 nM.
The like results for `CCN1c2ncc(CCOc3ccc(-c4ccc(CC(=O)O)cc4)cc3)cc2C(=O)N(C)c2cccnc21` [Entry 1007] were, in that order, 50 to 100 nM, less than 50 nM, 10 to 50 nM and greater than 50 nM.
Regarding `CCN1c2ncc(CCOc3ccc(-c4ccc(CC(=O)O)cc4)cc3C)cc2C(=O)N(C)c2cccnc21` [Entry 1008], the IC50 in experiment [1] (setting [4]) and in experiment [2] was less than 50 nM in each case. The EC50 (with HIV-1 wild type (setting [5]); in experiment [3] (setting [6])) was less than 10 nM each time.
For `CCN1c2ncc(CCOc3ccc(-c4cccc(C(=O)O)c4)cc3)cc2C(=O)N(C)c2cccnc21` [Entry 1012], the values for the IC50 in experiment [1] (setting [4]) and in experiment [2] were greater than 100 nM and less than 50 nM, respectively. Also, the EC50 with HIV-1 wild type (setting [5]) is less than 10 nM; in experiment [3] (setting [6]), 10 to 50 nM.
Consider `CCN1c2ncc(CCOc3ccc(-c4cccc(C(=O)O)c4)cc3C)cc2C(=O)N(C)c2cccnc21` [Entry 1013, 4′-[2-(11-Ethyl-6,11-dihydro-5-methyl-6-oxo-5H-dipyrido[3,2-b:2′,3′-e][1,4]diazepin-8-yl)ethoxy]-3′-methyl-[1,1′-biphenyl]-3-carboxylic acid], for which the IC50 in experiment [1] and in experiment [2] was less than 50 nM throughout. For the same molecule, the EC50 with HIV-1 wild type (setting [7]) was less than 10 nM; in experiment [3] (setting [8]), 10 to 50 nM.
For the molecule `CCN1c2ncc(CCOc3ccc(-c4cccc(CC(=O)O)c4)cc3)cc2C(=O)N(C)c2cccnc21` [Entry 1014], the results for the IC50 in experiment [1] (setting [4]) and in experiment [2] were greater than 100 nM and less than 50 nM, respectively. Further, the results for the EC50 (with HIV-1 wild type (setting [5]); in experiment [3] (setting [6])) were less than 10 nM and 10 to 50 nM, respectively.
For `CCN1c2ncc(CCOc3ccc(-c4cccc(CC(=O)O)c4)cc3C)cc2C(=O)N(C)c2cccnc21` [Entry 1015], in that order: less than 50 nM, less than 50 nM, less than 10 nM and less than 10 nM.
With `CCN1c2ncc(CCOc3ccc(-c4ccc(N)c(C(=O)O)c4)cc3C)cc2C(=O)N(C)c2cccnc21` [Entry 1034, 4-Amino-4′-[2-(11-ethyl-6,11-dihydro-5-methyl-6-oxo-5H-dipyrido[3,2-b:2′,3′-e][1,4]diazepin-8-yl)ethoxy]-3′-methyl-[1,1′-biphenyl]-3-carboxylic acid], the IC50 in experiment [1] and in experiment [2] was less than 50 nM each time. Besides, the EC50 (in the experiment on HIV-1 wild type (setting [7]); in experiment [3] (setting [8])) was less than 10 nM throughout.
As to `CCN1c2ncc(CCOc3ccc(-c4cc(C(=O)O)on4)cc3C)cc2C(=O)N(C)c2cccnc21` [Entry 1041, 3-{4-[2-(11-Ethyl-6,11-dihydro-5-methyl-6-oxo-5H-dipyrido[3,2-b:2′,3′-e][1,4]diazepin-8-yl)ethoxy]-3-methylphenyl}-5-isoxazolecarboxylic acid], the IC50 in experiment [1] and in experiment [2] was less than 50 nM each time. Moreover, the EC50 (in the experiment on HIV-1 wild type (setting [9]); in experiment [3] (setting [8])) was greater than 50 nM each time.
Turning to `CCN1c2ncc(CCOc3ccc(-c4ccc(C(=O)O)o4)cc3C)cc2C(=O)N(C)c2cccnc21` [Entry 1046, 5-{4-[2-(11-Ethyl-6,11-dihydro-5-methyl-6-oxo-5H-dipyrido[3,2-b:2′,3′-e][1,4]diazepin-8-yl)ethoxy]-3-methylphenyl}-2-furanecarboxylic acid], the IC50 was greater than 100 nM in experiment [1] and less than 50 nM in experiment [2]. For the same molecule, the EC50 is less than 10 nM with HIV-1 wild type (setting [9]) and greater than 50 nM in experiment [3] (setting [8]).
The like results for `CCN1c2ncc(CCOc3ccc(-c4cc(C(=O)O)c(C)o4)cc3)cc2C(=O)N(C)c2cccnc21` [Entry 1047, 5-{4-[2-(11-Ethyl-6,11-dihydro-5-methyl-6-oxo-5H-dipyrido[3,2-b:2′,3′-e][1,4]diazepin-8-yl)ethoxy]phenyl}-2-methyl-3-furanecarboxylic acid] were, in that order, greater than 100 nM, less than 50 nM, 10 to 50 nM and greater than 50 nM.
As to `CCN1c2ncccc2NC(=O)c2cc(CCOc3ccc(-c4ccc(CC(=O)O)cc4)cc3C)cnc21` [Entry 1058], the IC50 in experiment [1] (setting [4]) was 50 to 100 nM; in experiment [2] it was less than 50 nM. Moreover, the EC50 is less than 10 nM in the experiment on HIV-1 wild type (setting [5]) and 10 to 50 nM in experiment [3] (setting [6]).
Turning to `Cc1cc(-c2ccc(CC(=O)O)cc2)ccc1OCCc1cnc2c(c1)C(=O)N(C)c1cccnc1N2` [Entry 1059], the IC50 in experiment [1] (setting [4]) was greater than 100 nM; in experiment [2], less than 50 nM. For the same molecule, the EC50 with HIV-1 wild type (setting [5]) was less than 10 nM; in experiment [3] (setting [6]), greater than 50 nM.
Take `CCN1c2ncc(CCOc3ccc(-c4ccncc4)cc3)cc2C(=O)N(C)c2cccnc21` [Entry 1090, 11-Ethyl-5,11-dihydro-5-methyl-8-{2-[4-(4-pyridinyl)phenoxy]ethyl}-6H-dipyrido[3,2-b:2′,3′-e][1,4]diazepin-6-one]: the IC50 was 50 to 100 nM in experiment [1] and less than 50 nM in experiment [2]. Also, the EC50 with HIV-1 wild type (setting [9]) is less than 10 nM; in experiment [3] (setting [8]), 10 to 50 nM.
For `CCN1c2ncc(CCOc3ccc(-c4cc[n+]([O-])cc4)cc3)cc2C(=O)N(C)c2cccnc21` [Entry 1091, 11-Ethyl-5,11-dihydro-5-methyl-8-{2-[4-(1-oxido-4-pyridinyl)phenoxy]ethyl}-6H-dipyrido[3,2-b:2′,3′-e][1,4]diazepin-6-one], in that order: less than 50 nM, less than 50 nM, less than 10 nM and less than 10 nM.
In the case of `CCN1c2ncccc2NC(=O)c2cc(CCOc3ccc(-c4ccc[n+]([O-])c4)cc3C)cnc21` [Entry 1100], the IC50 in experiment [2] is less than 50 nM. Also, the EC50 with HIV-1 wild type (setting [5]) was less than 10 nM; in experiment [3] (setting [6]), 10 to 50 nM.
In experiment [1], `CCN1c2ncc(CCOc3ccc(Nc4nc(C(=O)O)cs4)cc3C)cc2C(=O)N(C)c2cccnc21` [Entry 3026] showed an IC50 of 50 to 100 nM. The EC50 in the experiment on HIV-1 wild type (setting [9]) is less than 10 nM; in experiment [3] (setting [8]), 10 to 50 nM.
`CCN1c2ncc(CCOc3ccc(NC(=O)/C=C/C(=O)O)cc3C)cc2C(=O)N(C)c2cccnc21` [Entry 4010]: the values for the IC50 in experiment [1] and in experiment [2] were 50 to 100 nM and less than 50 nM, respectively. In the experiment on HIV-1 wild type (setting [9]), the EC50 is greater than 50 nM.
For `CCN1c2ncc(CCOc3ccc(C(=O)NNCC(=O)O)cc3C)cc2C(=O)N(C)c2cccnc21` [Entry 4015], in that order: greater than 100 nM, less than 50 nM and 10 to 50 nM.
